Measured values: patent publication US20210228771A1, “BIOLOGIC MATERIAL COMPRISING A CROSSLINKED STRUCTURAL PROTEIN AND MACROPHAGES SEEDED ON THE CROSSLINKED STRUCTURAL PROTEIN” (CASE WESTERN RESERVE UNIVERSITY, priority 2020, published 2021)

Key:
human endothelial cells = details: cited from earlier work
[1] = 12.5 μg/ml; cited from earlier work
[2] = system: LPS-stimulated microglia cells derived from rat brain; details: cited from earlier work
[3] = system: LPS-stimulated RAW 264.7 murine macrophages cell line; details: cited from earlier work
pSTAT6 and PPAR-γ = experiment: Western blot of signaling pathways in genipin induced M2 polarization; type: cell-based, rat; details: genipin treated M0 (M0-GE)
Description: 7c. Investigation of signaling pathways involved in M2 polarization by genipin: A third set of experiments included the following groups: 1) Tissue culture plate with M2-polarization medium, 2) Tissue culture plate with M0-polarization medium with direct addition of genipin, 3) Tissue culture plate with M0-polarization medium. In this design, Groups 1 and 3 represent the positive and negative controls. Total cell lysate was prepared using RIPA lysis buffer (#50195822), phenylmethylsulfonylfluoride (PMSF) (#NC0417414) and protease/phosphatase inhibitor (#50193743) purchased from Cell Signaling Technology. The protein concentration in the cell lysate was estimated using DC protein assay (BioRad) and 25 μg protein was resolved using 4-20% Mini-PROTEAN gels (#4561094, BioRad) and transferred to a nitrocellulose membrane (#1620213, BioRad). The membrane was blocked in 5% non-fat dry milk/1% Tween 20 for 2 hr at room temperature. […] Following day, the blots were washed in TBST and incubated with anti-mouse secondary antibody (sc-516102) conjugated with horseradish peroxidase detected by ECL-chemiluminescence, then underwent autoradiography using BioBlue-Lite™ film (Alkali Scientific, FL). Quantitative analysis of the protein bands was performed using the Image J.

M0 macrophages = experiment: Western blot (arginase-1) of M0 macrophages with direct addition of genipin to culture medium; type: cell-based, rat; details: for arginase-1 expression in genipin treated M0 (M0-GE): 12.5 μg/ml genipin added directly to culture medium, versus cytokine induced M2
From the text: 7b. […] A second set of experiments included the following groups: 1) Tissue culture plate with M0-polarization medium, 2) Tissue culture plate with M1-polarization medium, 3) Tissue culture plate with M2-polarization medium, 4) Tissue culture plate with M0-polarization medium with direct addition of genipin, 5) M0 subtype cells seeded on uncrosslinked collagen threads, 6) M0 subtype cells seeded on genipin crosslinked collagen threads. In this design, Groups 1-3 constitute the positive controls. […] Comparison of group 5 with group 6 determines how genipin crosslinking of collagen affect the polarization status of M0 subtype. For group 4, genipin (Wako Pure Chemical Industries, catalog #078-03021, Richmond, Va.) in 0.1% dimethyl sulfoxide (DMSO, Sigma-Aldrich, USA) (12.5 μg/ml, genipin/DMSO) was directly added to the culture medium. […] Total cell lysate was prepared using RIPA lysis buffer (#50195822), phenylmethylsulfonylfluoride (PMSF) (#NC0417414) and protease/phosphatase inhibitor (#50193743) purchased from Cell Signaling Technology. The protein concentration in the cell lysate was estimated using DC protein assay (BioRad) and 25 μg protein was resolved using 4-20% Mini-PROTEAN gels (#4561094, BioRad) and transferred to a nitrocellulose membrane (#1620213, BioRad). The membrane was blocked in 5% non-fat dry milk/1% Tween 20 for 2 hr at room temperature. They were incubated with primary antibodies anti-Arg1 for M2 (sc-271430), anti-iNOS for M1 (sc-7271), pSTAT6 (#9361S), PPAR-gamma (sc-7273) and anti-GAPDH (sc-365062) as the housekeeping protein overnight at 4° C. Following day, the blots were washed in TBST and incubated with anti-mouse secondary antibody (sc-516102) conjugated with horseradish peroxidase detected by ECL-chemiluminescence, then underwent autoradiography using BioBlue-Lite™ film (Alkali Scientific, FL). Quantitative analysis of the protein bands was performed using the Image J.

For `COC(=O)C1=CO[C@@H](O)[C@@H]2C(CO)=CC[C@H]12` [genipin], the “TNF-α-induced VCAM-1 expression” value (human endothelial cells) is listed as “suppress”, the “toxicity of genipin concentration” value [1] is listed as “subtoxic” and the “IL-10 and TNF-α production” value [2] is listed as “leads to IL-10 and TNF-α production”. The “TNF-α and IL-6 (pro-inflammatory markers)” value [3] was “suppress”, the pSTAT6 expression (pSTAT6 and PPAR-γ) was “significantly higher compared to M2 polarization induced by IL-4” and the “arginase-1 expression in genipin treated M0 (M0-GE)” value (M0 macrophages) was “higher than for the M2 subtype induced with standard cytokines”. The “arginase-1 expression in genipin treated M0 (M0-GE)” value (M0 macrophages; listed as soluble genipin) was “moderately greater than a potent cytokine” and the “increase in Arg1 expression, soluble genipin compared to genipin presented via crosslinked collagen” value (M0 macrophages; M0GE vs. M0GES) was “approximately 3 fold”.
